Where no end group is shown, it is not given here. [ ]: non-standard residue; d: D form.
Key:
[1] = tested on: 3T3-L1 adipocytes; experiment: Free Fatty Acid Levels in cultured 3T3-L1 Adipocytes; conditions: for Free Fatty Acid Levels in 3T3-L1 Adipocytes Expressed as a Percent Isoproterenol Control, Percent of Control Value: test peptides 25 μM, 20-22 hours then isoproterenol (1 nM) 3 hours
Description: Following 12-15 days' differentiation, test peptides were added to a final concentration of 25 μM and incubated for 20-22 hours in Adipocyte Maintenance Medium. After 20-22 hours, isoproterenol (1 nM) was added to all wells except untreated controls and test peptides were replenished. Cells were incubated for a further 3 hours in Assay Buffer (Zen-Bio). Free fatty acid concentrations in the media were determined using a Free Fatty Acid Assay Kit (Zen-Bio) according to the manufacturer's instructions using a plate reader (540 nm). Absorbance values were corrected for untreated background and expressed relative to isoproterenol treated cells. Treatment with isoproterenol (1 nM) alone was used as the free fatty acid level stimulatory control. The relative standard deviation of the isoproterenol control was <10%.

[2] = tested on: MDA-MB-231 cells; experiment: Caspase 3/7 Activity (Caspase-Glo 3/7 Assay) in MDA-MB-231 cells; assay type: cell-based, human; conditions: test peptides 10 μM, 18 hours, relative to DMSO control
Description: The effect of the peptides on cell death/survival can be assessed using a caspase-3 assay. […] MDA-MB-231 cells were grown in DMEM Medium supplemented with 10% FBS. […] Luminescence for each sample well on the plate was measured by Envision 2104 Multilabel Reader (PerkinElmer, Santa Clara, Calif.). Activity was calculated relative to DMSO control.

[3] = tested on: MCF-7 cells; experiment: Cell viability, MTS Assay in MCF-7 Cells; conditions: test peptides 10 μM, 72 hours, relative to DMSO control
[4] = tested on: MDA-MB-231 cells; experiment: Cell viability, MTS Assay in MDA-MB-231 Cells; conditions: for MTS Assay in MDA-MB-231 Cells, Percent of Control Activity: 72 hours, relative to DMSO control, concentration not given

Molecule	Free Fatty Acid Levels in 3T3-L1 Adipocytes Expressed as a Percent Isoproterenol Control, Percent of Control Value [1] [%]	also measured
3 (PIVLELIPLKIFEIGPVFTL) [compound 3]	68	–
10 (SVWKV[dA]VQTFNCYYYVLQ[dA]L) [compound 10]	46	–
insulin [reference compound]	–	Free fatty acid levels, % of the isoproterenol control value ([1]; insulin 100 nM, positive control): < 5%
20 (R[dA]ERYTSIPRSEMVN[dA]SI[dA]F) [compound 20]	96	–
15 (VSVLES[dA]LGRTR[dA]) [compound 15]	126	–
5 (P[dA]VLELIPLKIFEI[dA]PVFT) [compound 5]	84	–
12 (MVSVLESALGRTRV) [compound 12]	124	Caspase 3/7 Activity in MDA-MB-231 Cells, Percent of Control Activity [2]: 44%; MTS Assay in MCF-7 Cells, Percent of Control Activity [3]: 32%; MTS Assay in MDA-MB-231 Cells, Percent of Control Activity [4]: 74%
8 (SVWKVAVQTFNCYYYVLQALIN) [compound 8]	117	–
19 (RCERYTSIPRSEMVN[dA]SIIF) [compound 19]	78	–
18 (RCERYTSIPRSEMVNASIIFM) [compound 18]	96	–
2 (PIVLELIPLKIFEIGPVFTL) [compound 2]	92	Caspase 3/7 Activity in MDA-MB-231 Cells, Percent of Control Activity [2]: 99%; MTS Assay in MCF-7 Cells, Percent of Control Activity [3]: 71%; MTS Assay in MDA-MB-231 Cells, Percent of Control Activity [4]: 78%
CN[C@@H]1C[C@H]2O[C@@](C)([C@@H]1OC)n1c3ccccc3c3c4c(c5c6ccccc6n2c5c31)C(=O)NC4 [staurosporine, reference compound]	–	Cell viability, % of the DMSO control value ([4]; Staurosporine 10 uM, MDA-MB-231 cells, positive control): 3%
14 (VSVLES[dA]LGRTRV) [compound 14]	94	–
7 (MSVWKVAVQTFNCYYYVLQALIN) [compound 7]	128	Caspase 3/7 Activity in MDA-MB-231 Cells, Percent of Control Activity [2]: 54%; MTS Assay in MCF-7 Cells, Percent of Control Activity [3]: 64%; MTS Assay in MDA-MB-231 Cells, Percent of Control Activity [4]: 83%
13 (VSVLESALGRTRV; not fully specified (residue 7)) [compound 13]	123	–
9 (SVWKVAVQTFNCYYYVLQAL; not fully specified (residues 6, 19)) [compound 9]	134	–
17 (MRCERYTSIPRSEMVNASIIFM) [compound 17]	108	Caspase 3/7 Activity in MDA-MB-231 Cells, Percent of Control Activity [2]: 51%; MTS Assay in MCF-7 Cells, Percent of Control Activity [3]: 54%; MTS Assay in MDA-MB-231 Cells, Percent of Control Activity [4]: 79%

Source: patent publication US20220324925A1, “THERAPEUTIC PEPTIDES” (COHBAR, INC., priority 2019, published 2022)
